Results on twelve molecules are retold here after ChEMBL document CHEMBL5727650, “Heteroaryl substituted aminopyridine compounds” (2020).

Structures are written as SMILES.

Usually IC50 stands for the concentration that gives 50% inhibition.

The target in the test is T1, Interleukin-1 receptor-associated kinase 4 (Homo sapiens, UniProt Q9NWZ3).
T1 sequence (Q9NWZ3 whole entry): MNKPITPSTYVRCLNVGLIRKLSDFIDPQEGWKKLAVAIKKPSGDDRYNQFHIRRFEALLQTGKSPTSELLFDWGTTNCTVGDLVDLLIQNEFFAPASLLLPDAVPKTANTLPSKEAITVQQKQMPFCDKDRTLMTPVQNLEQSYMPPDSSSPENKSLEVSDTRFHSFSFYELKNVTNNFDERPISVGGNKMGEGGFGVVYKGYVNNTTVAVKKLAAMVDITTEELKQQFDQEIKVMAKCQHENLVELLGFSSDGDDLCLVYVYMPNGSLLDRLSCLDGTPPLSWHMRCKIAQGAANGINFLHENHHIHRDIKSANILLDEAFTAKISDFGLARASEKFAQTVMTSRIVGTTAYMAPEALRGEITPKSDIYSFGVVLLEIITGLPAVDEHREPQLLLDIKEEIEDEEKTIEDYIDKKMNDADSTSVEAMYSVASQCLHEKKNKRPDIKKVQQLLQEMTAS
Put plainly: IRAK4 Inhibition Assay: The assays were performed in U-bottom 384-well plates. The final assay volume was 30 μL prepared from 15 μL additions of enzyme and substrates (fluoresceinated peptide and ATP) and test compounds in assay buffer (20 mM HEPES pH 7.2, 10 mM MgCl2, 0.015% Brij 35 and 4 mM DTT). The reaction was initiated by the combination of IRAK4 with substrates and test compounds. The reaction mixture was incubated at room temperature for 60 min. and terminated by adding 45 μL of 35 mM EDTA to each sample. The reaction mixture was analyzed on the Caliper LABCHIP® 3000 (Caliper, Hopkinton, Mass.) by electrophoretic separation of the fluorescent substrate and phosphorylated product. Inhibition data were calculated by comparison to no enzyme control reactions for 100% inhibition and vehicle-only reactions for 0% inhibition. The final concentrations of reagents in the assays are ATP, 500 μM; FL-IPTSPITTTYFFFKKK peptide 1.5 μM; IRAK4, 0.6 nM; and DMSO, 1.6%.
As to `CCCNc1cc(-c2cnn3cc(Cl)cnc23)ncc1C(=O)NC[C@@H](F)C(C)(C)O`, the IC50 was 5 nM.

For `CC(C)(F)CNc1cc(-c2cnn3cc(C#N)cnc23)ncc1C(=O)NC[C@@H](F)C(C)(C)O`, the IC50 was 12 nM.

On to `CC(C)(O)[C@H](F)CNC(=O)c1cnc(-c2cnn3cc(C#N)cnc23)cc1Nc1ccc(C(N)=O)cc1`, for which the IC50 is 1 nM.

As for `CC(=O)N[C@H]1CC[C@H](NC(=O)c2cnc(-c3cnn4cc(C#N)cnc34)cc2NC(C)C)CC1`, the IC50 was 15 nM.

For the molecule `CC1(Nc2cc(-c3cnc4cc(Cl)cnn34)ncc2C(=O)NC[C@H](F)C(C)(C)O)CC1`, the IC50 is 2 nM.

On to `CC(C)(O)[C@H](F)CNC(=O)c1cnc(-c2cnn3cc(Cl)cnc23)cc1Nc1ccn(CC(F)F)c1`, for which the IC50 was 2 nM.

For `CC(C)(O)[C@H](F)CNC(=O)c1cnc(-c2cnn3cc(C#N)cnc23)cc1NC1CCC(F)(F)C1O` (some centres not stated), the IC50 is 13 nM.

As to `CC(C)(O)[C@H](F)CNC(=O)c1cnc(-c2cnn3cc(C#N)cnc23)cc1Nc1ccn(CC(F)F)c1`, the IC50 was 2 nM.

`CC(C)(C)Nc1cc(-c2cnc3cc(C#N)cnn23)ncc1C(=O)NC[C@@H](F)C(C)(C)O`: the IC50 was 2 nM.

As for `COC(C)(C)[C@H]1CC[C@H](NC(=O)c2cnc(-c3cnc4cc(Cl)cnn34)cc2NC2COC2)CC1`, the IC50 is 7 nM.

As for `CC(C)(O)[C@H](F)CNC(=O)c1cnc(-c2cnn3cc(C#N)cnc23)cc1NC1CCC1`, the IC50 was 2 nM.

As to `CC(C)(O)[C@H](F)CNC(=O)c1cnc(-c2cnn3cc(Cl)cnc23)cc1NC12CC(C1)C2`, the IC50 is 9 nM.
